Source: ChEMBL document CHEMBL3112479, “Synthesis and evaluation of the antimicrobial activities of 3-((5-phenyl-1,3,4-oxadiazol-2-yl)methyl)-2-thioxothiazolidin-4-one derivatives” (2014)
≈ marks a conversion by molar mass, not a printed value.

What was measured:
[1] = test system: Staphylococcus aureus; experiment: Antimicrobial activity against quinolone-resistant Staphylococcus aureus clinical isolate 3519 after 20 hrs by two-fold serial dilution technique; type: functional; settings: isolate 3519, 20 h
[2] = test system: Staphylococcus aureus; experiment: Antimicrobial activity against quinolone-resistant Staphylococcus aureus clinical isolate 3505 after 20 hrs by two-fold serial dilution technique; type: functional; settings: isolate 3505, 20 h
[3] = test system: Staphylococcus aureus; experiment: Antimicrobial activity against methicillin-resistant Staphylococcus aureus clinical isolate 3506 after 20 hrs by two-fold serial dilution technique; type: functional; settings: isolate 3506, 20 h
[4] = test system: Staphylococcus aureus; experiment: Antimicrobial activity against methicillin-resistant Staphylococcus aureus clinical isolate 3167 after 20 hrs by two-fold serial dilution technique; type: functional; settings: isolate 3167, 20 h
[5] = test system: Candida albicans; experiment: Antimicrobial activity against Candida albicans 7535 after 20 hrs by two-fold serial dilution technique; type: functional; settings: Candida albicans, 7535, 20 h
[6] = test system: Salmonella typhimurium; experiment: Antimicrobial activity against Salmonella typhimurium 1926 after 20 hrs by two-fold serial dilution technique; type: functional, Salmonella enterica subsp. enterica serovar Typhimurium; settings: Salmonella enterica, 1926, 20 h
[7] = test system: Salmonella typhimurium; experiment: Antimicrobial activity against Salmonella typhimurium 2421 after 20 hrs by two-fold serial dilution technique; type: functional, Salmonella enterica subsp. enterica serovar Typhimurium; settings: Salmonella enterica, 2421, 20 h
[8] = test system: Pseudomonas aeruginosa; experiment: Antimicrobial activity against Pseudomonas aeruginosa 2004 after 20 hrs by two-fold serial dilution technique; type: functional; settings: Pseudomonas aeruginosa, 2004, 20 h
[9] = test system: Pseudomonas aeruginosa; experiment: Antimicrobial activity against Pseudomonas aeruginosa 2742 after 20 hrs by two-fold serial dilution technique; type: functional; settings: Pseudomonas aeruginosa, 2742, 20 h
[10] = test system: Escherichia coli; experiment: Antimicrobial activity against Escherichia coli CCARM 1356 after 20 hrs by two-fold serial dilution technique; type: functional; settings: CCARM 1356, 20 h
[11] = test system: Escherichia coli; experiment: Antimicrobial activity against Escherichia coli KCTC 1924 after 20 hrs by two-fold serial dilution technique; type: functional; settings: KCTC 1924, 20 h
[12] = test system: Streptococcus mutans; experiment: Antimicrobial activity against Streptococcus mutans 3065 after 20 hrs by two-fold serial dilution technique; type: functional; settings: Streptococcus mutans, 3065, 20 h
[13] = test system: Staphylococcus aureus; experiment: Antimicrobial activity against Staphylococcus aureus 503 after 20 hrs by two-fold serial dilution technique; type: functional; settings: Staphylococcus aureus, 503, 20 h
[14] = test system: Staphylococcus aureus; experiment: Antimicrobial activity against Staphylococcus aureus 209 after 20 hrs by two-fold serial dilution technique; type: functional; settings: Staphylococcus aureus, 209, 20 h
[15] = test system: Staphylococcus aureus; experiment: Antimicrobial activity against Staphylococcus aureus RN4220 after 20 hrs by two-fold serial dilution technique; type: functional; settings: RN4220, 20 h

Row | Structure (SMILES) | MIC [1] [µg/mL] | MIC [2] [µg/mL] | MIC [3] [µg/mL] | MIC [4] [µg/mL] | MIC [5] [µg/mL] | MIC [6] [µg/mL] | MIC [7] [µg/mL] | MIC [8] [µg/mL] | MIC [9] [µg/mL] | MIC [10] [µg/mL] | MIC [11] [µg/mL] | MIC [12] [µg/mL] | MIC [13] [µg/mL] | MIC [14] [µg/mL] | MIC [15] [µg/mL]
1 | O=C1CSC(=S)N1Cc1nnc(-c2ccc(Cl)cc2)o1 | 64 (≈ 196 µM) | 64 (≈ 196 µM) | 32 (≈ 98.2 µM) | 32 (≈ 98.2 µM) | 32 (≈ 98.2 µM) | 32 (≈ 98.2 µM) | 128 (≈ 393 µM) | > 128 | > 128 | > 128 | 16 (≈ 49.1 µM) | 16 (≈ 49.1 µM) | 64 (≈ 196 µM) | 32 (≈ 98.2 µM) | 32 (≈ 98.2 µM)
2 | O=C(O)c1ccc(/C=C2\SC(=S)N([C@@H](Cc3ccccc3)c3nnc(-c4cccc(Cl)c4)o3)C2=O)cc1 | 4 (≈ 7.3 µM) | 2 (≈ 3.65 µM) | 4 (≈ 7.3 µM) | 2 (≈ 3.65 µM) | > 64 | > 128 | > 128 | > 128 | > 128 | > 128 | > 128 | 2 (≈ 3.65 µM) | > 64 | > 64 | 2 (≈ 3.65 µM)
3 | Cc1ccccc1-c1nnc(CN2C(=O)CSC2=S)o1 | 64 (≈ 210 µM) | 32 (≈ 105 µM) | 64 (≈ 210 µM) | 32 (≈ 105 µM) | 64 (≈ 210 µM) | 32 (≈ 105 µM) | 128 (≈ 419 µM) | > 128 | > 128 | > 128 | 16 (≈ 52.4 µM) | 16 (≈ 52.4 µM) | 64 (≈ 210 µM) | 16 (≈ 52.4 µM) | 32 (≈ 105 µM)
4 | COc1c(N2CCNC(C)C2)c(F)cc2c(=O)c(C(=O)O)cn(C3CC3)c12 (stereo not drawn) [GATIFLOXACIN] | 4 (≈ 10.7 µM) | 8 (≈ 21.3 µM) | 2 (≈ 5.33 µM) | 2 (≈ 5.33 µM) | 0.5 (≈ 1.33 µM) | 2 (≈ 5.33 µM) | 0.5 (≈ 1.33 µM) | 1 (≈ 2.66 µM) | 1 (≈ 2.66 µM) | 16 (≈ 42.6 µM) | 2 (≈ 5.33 µM) | 0.5 (≈ 1.33 µM) | 4 (≈ 10.7 µM) | 2 (≈ 5.33 µM) | 0.25 (≈ 0.666 µM)
5 | Cc1ccc(-c2nnc(CN3C(=O)CSC3=S)o2)cc1 | 64 (≈ 210 µM) | 64 (≈ 210 µM) | 64 (≈ 210 µM) | 64 (≈ 210 µM) | 64 (≈ 210 µM) | 64 (≈ 210 µM) | 128 (≈ 419 µM) | > 128 | > 128 | > 128 | 64 (≈ 210 µM) | 64 (≈ 210 µM) | 64 (≈ 210 µM) | 64 (≈ 210 µM) | 64 (≈ 210 µM)
6 | Cc1cccc(-c2nnc(CN3C(=O)/C(=C/c4ccc(C(=O)O)cc4)SC3=S)o2)c1 | 32 (≈ 73.1 µM) | 32 (≈ 73.1 µM) | 32 (≈ 73.1 µM) | 32 (≈ 73.1 µM) | > 64 | > 128 | > 128 | > 128 | > 128 | > 128 | > 128 | 16 (≈ 36.6 µM) | 32 (≈ 73.1 µM) | 32 (≈ 73.1 µM) | 16 (≈ 36.6 µM)
7 | O=C1CSC(=S)N1Cc1nnc(-c2ccc(Br)cc2)o1 | 64 (≈ 173 µM) | 64 (≈ 173 µM) | 64 (≈ 173 µM) | 64 (≈ 173 µM) | 64 (≈ 173 µM) | 64 (≈ 173 µM) | 128 (≈ 346 µM) | > 128 | > 128 | > 128 | 64 (≈ 173 µM) | 16 (≈ 43.2 µM) | 64 (≈ 173 µM) | 64 (≈ 173 µM) | 64 (≈ 173 µM)
8 | Cc1cccc(-c2nnc(CN3C(=O)CSC3=S)o2)c1 | 32 (≈ 105 µM) | 32 (≈ 105 µM) | 32 (≈ 105 µM) | 32 (≈ 105 µM) | 64 (≈ 210 µM) | 64 (≈ 210 µM) | 128 (≈ 419 µM) | > 128 | > 128 | > 128 | 16 (≈ 52.4 µM) | 8 (≈ 26.2 µM) | 32 (≈ 105 µM) | 16 (≈ 52.4 µM) | 32 (≈ 105 µM)
9 | O=C1CSC(=S)N1[C@@H](Cc1ccccc1)c1nnc(-c2ccccc2)o1 | 16 (≈ 41.9 µM) | 16 (≈ 41.9 µM) | 16 (≈ 41.9 µM) | 16 (≈ 41.9 µM) | > 64 | > 128 | > 128 | > 128 | > 128 | > 128 | > 128 | 8 (≈ 21 µM) | > 64 | > 64 | 16 (≈ 41.9 µM)
10 | Cc1onc(-c2ccccc2)c1C(=O)N[C@@H]1C(=O)N2[C@@H]1SC(C)(C)[C@@H]2C(=O)O [OXACILLIN] | 1 (≈ 2.49 µM) | 1 (≈ 2.49 µM) | > 64 | > 64 |  |  |  |  |  |  |  |  |  |  | 
11 | CCn1cc(C(=O)O)c(=O)c2cc(F)c(N3CCNCC3)cc21 [NORFLOXACIN] | > 64 | > 64 | 4 (≈ 12.5 µM) | 8 (≈ 25.1 µM) |  |  |  |  |  |  |  |  |  |  | 
